Assay results as given in ChEMBL document CHEMBL4130345, “Discovery of a series of dihydroquinoxalin-2(1H)-ones as selective BET inhibitors from a dual PLK1-BRD4 inhibitor” (Eur J Med Chem, 2017).
Active and inactive are the calls of the source. No cut-off for these calls is given here.

What was measured:
[1] = biological target: Bromodomain-containing protein 2 (Homo sapiens) (UniProt P25440); experiment: Inhibition of human partial length BRD2 bromodomain 1 long isoform (K71 to N194 residues) expressed in Escherichia coli BL21 assessed as residual activity at 1 uM after 1 hr by qPCR method relative to control
Sequence of Bromodomain-containing protein 2 (Homo sapiens) (P25440 whole entry, looked up, the tested form may be a part, canonical isoform): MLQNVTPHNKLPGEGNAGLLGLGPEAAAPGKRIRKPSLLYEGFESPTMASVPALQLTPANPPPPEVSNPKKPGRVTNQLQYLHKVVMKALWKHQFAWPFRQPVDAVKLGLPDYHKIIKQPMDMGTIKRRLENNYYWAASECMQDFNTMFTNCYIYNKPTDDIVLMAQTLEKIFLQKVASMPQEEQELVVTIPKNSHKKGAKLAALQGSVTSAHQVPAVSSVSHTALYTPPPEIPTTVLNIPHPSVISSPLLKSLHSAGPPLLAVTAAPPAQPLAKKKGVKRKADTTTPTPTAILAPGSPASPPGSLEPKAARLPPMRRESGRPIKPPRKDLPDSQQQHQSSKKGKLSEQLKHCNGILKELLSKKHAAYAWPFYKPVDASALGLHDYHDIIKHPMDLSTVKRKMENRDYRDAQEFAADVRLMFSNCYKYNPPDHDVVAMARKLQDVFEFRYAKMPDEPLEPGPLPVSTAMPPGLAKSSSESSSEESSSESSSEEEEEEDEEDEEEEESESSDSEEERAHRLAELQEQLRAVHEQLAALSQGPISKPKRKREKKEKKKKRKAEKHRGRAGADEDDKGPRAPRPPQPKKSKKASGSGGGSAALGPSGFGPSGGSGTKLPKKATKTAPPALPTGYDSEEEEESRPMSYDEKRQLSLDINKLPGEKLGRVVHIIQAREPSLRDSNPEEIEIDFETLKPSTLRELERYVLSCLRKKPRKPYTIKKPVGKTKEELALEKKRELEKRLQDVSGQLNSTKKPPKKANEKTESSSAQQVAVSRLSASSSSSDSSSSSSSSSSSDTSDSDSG

[2] = biological target: Protein polybromo-1 (Homo sapiens) (UniProt Q86U86); experiment: Inhibition of human partial length PBRM1 bromodomain 2 (S178 to E291 residues) expressed in Escherichia coli BL21 assessed as residual activity at 1 uM after 1 hr by qPCR method relative to control
Sequence of Protein polybromo-1 (Homo sapiens) (Q86U86 whole entry, the tested form may be a part): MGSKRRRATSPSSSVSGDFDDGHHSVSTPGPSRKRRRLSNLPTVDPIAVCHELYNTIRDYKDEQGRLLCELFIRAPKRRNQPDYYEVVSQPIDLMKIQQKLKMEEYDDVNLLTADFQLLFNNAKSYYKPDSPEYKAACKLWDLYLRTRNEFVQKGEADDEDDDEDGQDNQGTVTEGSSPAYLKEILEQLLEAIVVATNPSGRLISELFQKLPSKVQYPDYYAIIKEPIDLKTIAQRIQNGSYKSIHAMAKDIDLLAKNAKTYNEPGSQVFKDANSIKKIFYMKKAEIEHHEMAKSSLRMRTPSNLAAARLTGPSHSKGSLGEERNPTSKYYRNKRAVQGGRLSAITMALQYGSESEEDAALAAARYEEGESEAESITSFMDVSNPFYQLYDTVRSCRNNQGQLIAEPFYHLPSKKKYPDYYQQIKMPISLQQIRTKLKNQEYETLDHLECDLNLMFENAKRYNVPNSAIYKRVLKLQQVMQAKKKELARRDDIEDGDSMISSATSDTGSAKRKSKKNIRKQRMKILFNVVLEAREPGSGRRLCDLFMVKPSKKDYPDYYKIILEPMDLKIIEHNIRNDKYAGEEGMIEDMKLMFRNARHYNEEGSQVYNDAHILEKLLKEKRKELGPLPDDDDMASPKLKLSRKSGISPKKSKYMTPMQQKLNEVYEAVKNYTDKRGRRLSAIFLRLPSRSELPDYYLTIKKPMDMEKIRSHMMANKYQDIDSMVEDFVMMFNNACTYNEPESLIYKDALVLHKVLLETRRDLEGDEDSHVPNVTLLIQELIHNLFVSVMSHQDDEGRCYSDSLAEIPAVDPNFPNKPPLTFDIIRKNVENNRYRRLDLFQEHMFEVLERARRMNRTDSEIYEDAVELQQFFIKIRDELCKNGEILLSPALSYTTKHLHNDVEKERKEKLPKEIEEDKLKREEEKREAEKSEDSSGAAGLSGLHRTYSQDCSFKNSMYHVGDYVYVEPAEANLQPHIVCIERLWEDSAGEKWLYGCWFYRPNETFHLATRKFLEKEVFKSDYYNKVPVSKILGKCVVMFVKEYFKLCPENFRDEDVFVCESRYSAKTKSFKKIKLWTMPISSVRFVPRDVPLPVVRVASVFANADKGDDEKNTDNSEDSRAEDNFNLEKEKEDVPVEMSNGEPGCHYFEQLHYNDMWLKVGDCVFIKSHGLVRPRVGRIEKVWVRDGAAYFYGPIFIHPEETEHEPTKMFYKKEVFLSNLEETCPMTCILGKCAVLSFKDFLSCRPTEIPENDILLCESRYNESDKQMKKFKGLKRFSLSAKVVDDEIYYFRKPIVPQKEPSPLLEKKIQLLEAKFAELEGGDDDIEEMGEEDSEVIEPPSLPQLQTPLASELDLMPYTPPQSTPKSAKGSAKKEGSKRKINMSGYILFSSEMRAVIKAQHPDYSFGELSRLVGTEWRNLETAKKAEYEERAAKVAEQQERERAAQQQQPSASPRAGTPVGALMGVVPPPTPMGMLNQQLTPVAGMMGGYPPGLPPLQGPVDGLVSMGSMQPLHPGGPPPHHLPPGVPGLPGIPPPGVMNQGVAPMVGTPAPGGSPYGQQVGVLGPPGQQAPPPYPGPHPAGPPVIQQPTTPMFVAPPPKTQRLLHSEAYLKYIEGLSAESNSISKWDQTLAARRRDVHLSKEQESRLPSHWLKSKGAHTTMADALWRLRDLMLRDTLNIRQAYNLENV

[3] = biological target: Chromatin remodeling regulator CECR2 (Homo sapiens) (UniProt Q9BXF3); experiment: Inhibition of human partial length CECR2 (P423 to D543 residues) expressed in Escherichia coli BL21 assessed as residual activity at 1 uM after 1 hr by qPCR method relative to control
Sequence of Chromatin remodeling regulator CECR2 (Homo sapiens) (Q9BXF3 whole entry, looked up, the tested form may be a part, canonical isoform): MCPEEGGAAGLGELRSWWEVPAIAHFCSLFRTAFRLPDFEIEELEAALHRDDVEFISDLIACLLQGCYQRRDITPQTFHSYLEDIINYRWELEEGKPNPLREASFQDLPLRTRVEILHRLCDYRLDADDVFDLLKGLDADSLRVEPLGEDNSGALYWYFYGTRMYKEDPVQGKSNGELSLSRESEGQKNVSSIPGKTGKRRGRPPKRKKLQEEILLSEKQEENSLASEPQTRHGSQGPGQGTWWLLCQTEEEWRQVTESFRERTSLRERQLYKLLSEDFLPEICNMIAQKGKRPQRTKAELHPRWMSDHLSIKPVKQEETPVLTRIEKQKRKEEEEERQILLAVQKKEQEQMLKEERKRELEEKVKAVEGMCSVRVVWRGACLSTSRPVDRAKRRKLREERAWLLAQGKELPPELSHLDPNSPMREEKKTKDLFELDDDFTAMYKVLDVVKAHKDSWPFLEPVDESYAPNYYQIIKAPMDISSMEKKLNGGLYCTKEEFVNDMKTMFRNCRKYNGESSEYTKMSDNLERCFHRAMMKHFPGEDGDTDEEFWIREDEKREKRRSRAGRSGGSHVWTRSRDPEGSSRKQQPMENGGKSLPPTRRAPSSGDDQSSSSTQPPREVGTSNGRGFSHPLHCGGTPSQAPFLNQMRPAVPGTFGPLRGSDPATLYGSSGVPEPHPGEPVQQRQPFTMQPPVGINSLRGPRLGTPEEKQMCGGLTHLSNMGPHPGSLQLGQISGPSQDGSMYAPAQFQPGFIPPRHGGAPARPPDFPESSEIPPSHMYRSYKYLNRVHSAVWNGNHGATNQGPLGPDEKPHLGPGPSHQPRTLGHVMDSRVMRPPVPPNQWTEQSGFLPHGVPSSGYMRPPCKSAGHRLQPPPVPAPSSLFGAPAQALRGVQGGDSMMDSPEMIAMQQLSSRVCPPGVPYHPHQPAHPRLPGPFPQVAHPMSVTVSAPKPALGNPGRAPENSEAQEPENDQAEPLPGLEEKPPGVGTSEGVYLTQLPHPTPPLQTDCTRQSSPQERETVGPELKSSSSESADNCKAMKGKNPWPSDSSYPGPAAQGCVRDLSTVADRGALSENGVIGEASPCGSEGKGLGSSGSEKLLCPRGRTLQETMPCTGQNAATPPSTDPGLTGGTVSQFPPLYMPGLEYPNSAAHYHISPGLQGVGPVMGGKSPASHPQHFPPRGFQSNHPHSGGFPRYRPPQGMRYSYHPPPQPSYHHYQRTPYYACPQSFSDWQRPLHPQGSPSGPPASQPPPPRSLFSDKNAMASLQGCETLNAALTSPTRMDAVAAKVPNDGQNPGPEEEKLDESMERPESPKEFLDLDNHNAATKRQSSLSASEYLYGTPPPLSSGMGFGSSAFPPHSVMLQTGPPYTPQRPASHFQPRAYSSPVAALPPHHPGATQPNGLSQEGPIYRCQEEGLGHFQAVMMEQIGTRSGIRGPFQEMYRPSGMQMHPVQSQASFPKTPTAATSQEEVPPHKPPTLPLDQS

[4] = biological target: T1, Bromodomain-containing protein 4 (Homo sapiens, UniProt O60885); experiment: Inhibition of human partial length BRD4 bromodomain 2 long isoform (K333 to E460 residues) expressed in Escherichia coli BL21 assessed as residual activity at 1 uM after 1 hr by qPCR method relative to control
[5] = biological target: T1, Bromodomain-containing protein 4; experiment: Inhibition of JQ1-FITC binding to His6-tagged BRD4-BD1 (unknown origin) expressed in Escherichia coli BL21 (DE3)-codon plus-RIL cells incubated in dark for 4 hrs by fluorescence anisotropy assay
[6] = biological target: ATPase family AAA domain-containing protein 2 (Homo sapiens) (UniProt Q6PL18); experiment: Inhibition of human partial length ATAD2A (Q981 to R1108 residues) expressed in Escherichia coli BL21 assessed as residual activity at 1 uM after 1 hr by qPCR method relative to control
[7] = AUC (0 to infinity) in ICR (CD-1) mouse at 10 mg/kg, po; assay type: ADME, organism-based; parameters: dose 10 mg/kg, time infinity, route oral; conditions: in vivo
[8] = Plasma concentration in ICR (CD-1) mouse at 10 mg/kg, po after 24 hrs; assay type: ADME, organism-based
[9] = AUC (0 to t) in ICR (CD-1) mouse at 10 mg/kg, po; assay type: ADME, organism-based; conditions: in vivo
[10] = biological target: Bromodomain adjacent to zinc finger domain protein 2A (Homo sapiens) (UniProt Q9UIF9); experiment: Inhibition of human partial length BAZ2A (M1792 to L1905 residues) expressed in Escherichia coli BL21 assessed as residual activity at 1 uM after 1 hr by qPCR method relative to control
[11] = biological target: Protein polybromo-1 (Homo sapiens) (UniProt Q86U86); experiment: Inhibition of human partial length PBRM1 bromodomain 5 (S645 to D766 residues) expressed in Escherichia coli BL21 assessed as residual activity at 1 uM after 1 hr by qPCR method relative to control
[12] = Cmax in ICR (CD-1) mouse at 10 mg/kg, po; assay type: ADME, organism-based; parameters: dose 10 mg/kg, route oral; conditions: in vivo
[13] = biological target: Bromodomain and WD repeat-containing protein 1 (Homo sapiens) (UniProt Q9NSI6); experiment: Inhibition of human partial length BRWD1 (A1310 to E1430 residues) expressed in Escherichia coli BL21 assessed as residual activity at 1 uM after 1 hr by qPCR method relative to control
[14] = biological target: Transcription initiation factor TFIID subunit 1 (Homo sapiens) (UniProt P21675); experiment: Inhibition of human partial length TAF1 bromodomain 2 (D1521 to D1656 residues) expressed in Escherichia coli BL21 assessed as residual activity at 1 uM after 1 hr by qPCR method relative to control
[15] = biological target: Nucleosome-remodeling factor subunit BPTF (Homo sapiens) (UniProt Q12830); experiment: Inhibition of human partial length FALZ (S2791 to H2911 residues) expressed in Escherichia coli BL21 assessed as residual activity at 1 uM after 1 hr by qPCR method relative to control
[16] = biological target: Bromodomain-containing protein 7 (Homo sapiens) (UniProt Q9NPI1); experiment: Inhibition of human partial length BRD7 (L125 to R254 residues) expressed in mammalian expression system assessed as residual activity at 1 uM after 1 hr by qPCR method relative to control
[17] = biological target: Bromodomain-containing protein 2 (Homo sapiens) (UniProt P25440); experiment: Inhibition of human partial length BRD2 bromodomain 2 isoform 1 (E348 to D455 residues) expressed in Escherichia coli BL21 assessed as residual activity at 1 uM after 1 hr by qPCR method relative to control
[18] = biological target: T1, Bromodomain-containing protein 4; experiment: Inhibition of human partial length BRD4 bromodomain 1 long isoform (N44 to E168 residues) expressed in Escherichia coli BL21 assessed as residual activity at 1 uM after 1 hr by qPCR method relative to control
[19] = biological target: Bromodomain testis-specific protein (Homo sapiens) (UniProt Q58F21); experiment: Inhibition of human partial length BRDT bromodomain 2 (K250 to E382 residues) expressed in Escherichia coli BL21 assessed as residual activity at 1 uM after 1 hr by qPCR method relative to control
[20] = biological target: E3 ubiquitin-protein ligase TRIM33 (Homo sapiens) (UniProt Q9UPN9); experiment: Inhibition of human partial length TRIM33 (D882 to A1087 residues) expressed in Escherichia coli BL21 assessed as residual activity at 1 uM after 1 hr by qPCR method relative to control
[21] = biological target: Bromodomain adjacent to zinc finger domain protein 2B (Homo sapiens) (UniProt Q9UIF8); experiment: Inhibition of human partial length BAZ2B (S2054 to S2168 residues) expressed in Escherichia coli BL21 assessed as residual activity at 1 uM after 1 hr by qPCR method relative to control
[22] = biological target: T1, Bromodomain-containing protein 4; experiment: Inhibition of BRD4 in human TY82 cells assessed as downregulation of c-Myc protein expression at 0.2 to 1 uM after 24 hrs by Western blot method; assay type: cell-based
[23] = biological target: SWI/SNF-related matrix-associated actin-dependent regulator of chromatin subfamily A member 4 (Homo sapiens) (UniProt P51532); experiment: Inhibition of human partial length SMARCA4 (A1448 to S1575 residues) expressed in Escherichia coli BL21 assessed as residual activity at 1 uM after 1 hr by qPCR method relative to control
[24] = biological target: Bromodomain-containing protein 3 (Homo sapiens) (UniProt Q15059); experiment: Inhibition of human partial length BRD3 bromodomain 1 (P24 to E144 residues) expressed in Escherichia coli BL21 assessed as residual activity at 1 uM after 1 hr by qPCR method relative to control
Sequence of Bromodomain-containing protein 3 (Homo sapiens) (Q15059 2-726 limits assumed): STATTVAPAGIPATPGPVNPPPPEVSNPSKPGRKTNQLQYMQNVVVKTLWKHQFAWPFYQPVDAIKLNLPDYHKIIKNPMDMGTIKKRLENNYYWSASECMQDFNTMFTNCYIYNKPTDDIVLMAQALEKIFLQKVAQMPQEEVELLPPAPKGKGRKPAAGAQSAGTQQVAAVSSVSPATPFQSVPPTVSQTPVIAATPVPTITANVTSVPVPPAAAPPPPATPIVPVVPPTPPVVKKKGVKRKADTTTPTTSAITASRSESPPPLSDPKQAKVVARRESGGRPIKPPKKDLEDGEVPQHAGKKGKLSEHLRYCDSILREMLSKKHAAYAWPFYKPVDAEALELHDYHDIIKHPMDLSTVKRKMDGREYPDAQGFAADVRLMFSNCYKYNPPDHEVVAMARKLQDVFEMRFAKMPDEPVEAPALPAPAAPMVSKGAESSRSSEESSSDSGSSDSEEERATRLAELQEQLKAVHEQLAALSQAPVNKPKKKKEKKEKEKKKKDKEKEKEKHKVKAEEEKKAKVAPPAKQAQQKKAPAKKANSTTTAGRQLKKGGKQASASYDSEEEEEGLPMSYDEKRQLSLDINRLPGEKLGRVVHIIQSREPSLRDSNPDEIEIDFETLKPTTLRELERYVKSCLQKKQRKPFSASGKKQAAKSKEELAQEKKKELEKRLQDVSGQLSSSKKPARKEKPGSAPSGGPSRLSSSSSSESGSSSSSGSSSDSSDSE

[25] = biological target: Histone acetyltransferase KAT2A (Homo sapiens) (UniProt Q92830); experiment: Inhibition of human partial length GCN5L2 (E726 to K837 residues) expressed in Escherichia coli BL21 assessed as residual activity at 1 uM after 1 hr by qPCR method relative to control
[26] = biological target: Bromodomain-containing protein 3 (Homo sapiens) (UniProt Q15059); experiment: Inhibition of human partial length BRD3 bromodomain 2 (G306 to P416 residues) expressed in Escherichia coli BL21 assessed as residual activity at 1 uM after 1 hr by qPCR method relative to control
[27] = biological target: Bromodomain-containing protein 9 (Homo sapiens) (UniProt Q9H8M2); experiment: Inhibition of human partial length BRD9 (R130 to V259 residues) expressed in Escherichia coli BL21 assessed as residual activity at 1 uM after 1 hr by qPCR method relative to control

Activity [1]: 0.9%
Activity [2]: 100%
Activity [3]: 83%
Activity [4]: 0.05%
IC50 [5]: 45 nM
Activity [6]: 100%
AUC(0-inf) [7]: 1690 ng·h/mL
concentration at 24 h [8]: < 0.3 ng/mL
AUC(0-t) [9]: 1680 ng·h/mL
Activity [10]: 83%
Activity [11]: 94%
Cmax [12]: 869 ng/mL
Activity [13]: 73%
Activity [14]: 85%
Activity [15]: 96%
Activity [16]: 97%
Activity [17]: 0%
Activity [18]: 1.7%
Activity [19]: 0%
Activity [20]: 99%
Activity [21]: 82%
inhibition [22]: Active
Activity [23]: 95%
Activity [24]: 0.1%
Activity [25]: 63%
Activity [26]: 0.3%
Activity [27]: 77%
Compound: Cc1ccc([C@H](C)Nc2ccc3c(c2)N(C2CC2)[C@H](C)C(=O)N3C)c(C)c1
